Experimental data as given in US20040067889A1, “Stabilization of brain natriuretic peptide (BNP) in blood samples, methods and compositions related thereto” (priority 2002, published 2004).

Test system: endogenous proteases
Assay: Stability of synthetic BNP-32 spiked into normal human plasma with protease inhibitors (chemiluminescent BNP immunoassay)
Assay type: biochemical
Details: for efficacy in stabilizing BNP (in words): Table 11, inhibitors at usual functional concentrations
[1] = IHPP + 10 ng/ml BNP, 4° C., AEBSF 200 μg/ml, antipain 100 μg/ml, benzamidine 14 mM, PPACK 50 μg/ml, or all four

Structure (SMILES)	% Recovery vs 1st run (Time 0)	BNP, 1st run (Time 0)	BNP, 3 hours at 4° C.	BNP, 17 hours at 4° C.	BNP, 40 hours at 4° C.	BNP, 6 days at 4° C.	1 week (RLU) [1]	2 weeks (RLU) [1]	4 weeks % Signal Recovered [1]	4 weeks (RLU) [1]	72 hrs (RLU) [1]	22 days (RLU) [1]	Day 0 (RLU) [1]	efficacy in stabilizing BNP (in words)
NCCc1ccc(S(=O)(=O)F)cc1 [AEBSF, 4-(2-aminoethyl)benzenesulfonylfluoride]	85.2%	741.7 pg/mL	768.6 pg/mL	715.2 pg/mL	735.7 pg/mL	631.9 pg/mL	2504809 RLU	4241 RLU	0.1%	2434 RLU	3249767 RLU	3812 RLU	4079471 RLU	intermediate efficacy
NC(N)=NCCC[C@H](NC(=O)[C@@H]1CCCN1C(=O)[C@H](N)Cc1ccccc1)C(=O)CCl [PPRACK, D-Phe-Pro-Arg-chloromethylketone]	100.5%	892.0 pg/mL	894.6 pg/mL	957.6 pg/mL	939.7 pg/mL	896.2 pg/mL								act as efficiently as antipain, leupeptin and PPACK
